Counter-ions that a name gives are not always drawn. Like-named read-outs stand apart in the source and are kept apart here.
Key:
[1] = biological target: T1, fucosyltransferase (FUT-8) (Homo sapiens, UniProt Q9BYC5); assay: Inhibition of fucosyltransferase (FUT-8) activity, detection of fucosylation of the substrate protein; format: biochemical; conditions: for inhibition at 10 µM: read-out: Primary Screen (10 μM), inhibition value
T1 sequence (Q9BYC5 1-575): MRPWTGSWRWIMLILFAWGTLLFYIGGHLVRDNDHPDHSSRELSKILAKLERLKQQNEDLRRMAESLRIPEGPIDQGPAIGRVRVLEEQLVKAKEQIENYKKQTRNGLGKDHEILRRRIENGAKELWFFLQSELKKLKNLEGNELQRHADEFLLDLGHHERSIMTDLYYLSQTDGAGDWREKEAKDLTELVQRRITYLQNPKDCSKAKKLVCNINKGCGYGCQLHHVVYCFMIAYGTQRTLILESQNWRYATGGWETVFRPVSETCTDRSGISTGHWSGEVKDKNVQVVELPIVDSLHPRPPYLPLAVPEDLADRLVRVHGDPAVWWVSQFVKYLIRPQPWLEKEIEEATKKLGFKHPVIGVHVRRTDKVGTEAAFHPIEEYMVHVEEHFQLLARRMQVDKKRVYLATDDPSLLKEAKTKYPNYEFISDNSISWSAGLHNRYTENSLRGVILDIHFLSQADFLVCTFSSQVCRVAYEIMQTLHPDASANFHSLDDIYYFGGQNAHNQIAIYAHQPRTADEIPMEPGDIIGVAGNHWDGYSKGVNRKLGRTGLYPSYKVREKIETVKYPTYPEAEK
Method: Briefly, a compound was combined with fucosyltransferase (FUT-8) and appropriate substrates and incubated for 1 hour. The reaction was terminated, and a detection reagent mixture was added to detect the amount of fucosylation of the substrate protein.

[2] = test system: CHO cells producing an anti-IL8 IgG monoclonal antibody (ATCC CRL-12445); assay: Reduction of fucosylation of anti-IL8 mAb produced by CHO cells, LC-MS analysis; format: cell-based
Excerpt: Briefly, Epicatechin Monogallate (ECG), Epicatechin-3-Monogallate (ECGC) and Aurin Tricarboxylic Acid (ATA) were included in the cell culture media and added to CHO cells producing an anti-IL8 IgG monoclonal antibody (mAb) obtained from [NT] CRL-12445), which is also described in U.S. Pat. No. 6,025,158, which is hereby incorporated by reference in its entirety. After a specified period of time the cells were harvested and the anti-IL8 mAb purified by standard methods. Purified anit-IL8 mAbs were then reduced by the addition of dithiothreitol and subjected to LC-MS analysis to determine the level of fucosylation. The decrease in the level of anti-IL8 fucosylation are depicted in FIG. 20 AND FIG. 21.

[3] = 10 μM compound, incubated for 1 hour
[4] = incubated for 1 hour, read-out: IC50 Value

| Compound | inhibition at 10 µM [1, 3] [%] | IC50 [1, 4] [µM] | also measured |
| --- | --- | --- | --- |
| O=C(O[C@@H]1Cc2c(O)cc(O)cc2O[C@@H]1c1cc(O)c(O)c(O)c1)c1cc(O)c(O)c(O)c1 | 39 | > 10 | reduction in fucosylation ([2]; 10 μM in cell culture media): 6% |
| O=C1C=C2CC3(O)COc4c(ccc(O)c4O)C3=C2C=C1O (centres unmarked) | 82 | < 10 |  |
| C[n+]1c2cc(N)ccc2cc2ccc(N)cc21 [Acriflavinium] | 47 | > 10 |  |
| O=C1c2c(O)cccc2Cc2cccc(O)c21 [Anthralin, reference compound] | 28 | > 10 |  |
| O=C(O)C1=CC(=C(c2ccc(O)c(C(=O)O)c2)c2ccc(O)c(C(=O)O)c2)C=CC1=O [Aurin Tricarboxylic Acid] | 34 | > 10 | change of fucosylation level ([2]; either concentration tested (data not shown)): did not alter the fucosylation level |
| O=c1cc(-c2ccccc2)oc2cc(O)c(O)c(O)c12 [Baicalein] | 29 |  |  |
| O=c1cc(-c2ccccc2)oc2cc(O)cc(O)c12 [Chrysin] | 30 | > 10 |  |
| N.N.[Cl][Pt][Cl] [Cisplatin, reference compound] |  | > 10 | Primary Screen (10 μM), inhibition value [1, 3]: 60% |
| COc1ccc(-c2cc(=O)c3c(O)cc(O)cc3o2)cc1O [Diometin] | 35 |  |  |
| O=C(O[C@@H]1Cc2c(O)cc(O)cc2O[C@@H]1c1ccc(O)c(O)c1)c1cc(O)c(O)c(O)c1 [Epicatechin Monogallate] | 25 | > 10 | reduction in fucosylation ([2]; 10-fold lower concentration than 100 μM): 13%; core fucosylated species, with concomitant rise in the afucosylated species ([2]; dose dependence): dose dependent decrease; reduction in fucosylation ([2]; maximum concentration (100 μM) in cell culture media): 25% |
| CCOc1ccc2nc3cc(N)ccc3c(N)c2c1 [Ethcridine Lactate, Etheridine Lactate] | 26 | > 10 |  |
| Cc1cc2c(C(C)C)c(O)c(O)c(C=O)c2c(O)c1-c1c(C)cc2c(C(C)C)c(O)c(O)c(C=O)c2c1O [Gossypol] |  |  | IC50 [1]: > 10 µM; inhibition at 10 µM [1]: 26% |
| Oc1c(Cl)cc(Cl)c(Cl)c1Cc1c(O)c(Cl)cc(Cl)c1Cl [Hexachlorophene, reference compound] |  |  | IC50 [1]: > 10 µM; inhibition at 10 µM [1]: 40% |
| CCN(CC)CCNc1ccc(CO)c2sc3ccccc3c(=O)c12 [Hycanthone, reference compound] | 27 | > 10 |  |
| C=C1c2cccc(O)c2C(=O)C2=C(O)[C@]3(O)C(=O)C(C(N)=O)=C(O)[C@@H](N(C)C)[C@@H]3[C@@H](O)[C@H]12 [Methacycline, reference compound] |  | < 10 | Primary Screen (10 μM), inhibition value [1, 3]: 82% |
| O=C1c2c(O)ccc(O)c2C(=O)c2c(NCCNCCO)ccc(NCCNCCO)c21 [Mitoxanthrone Hydrocloride, Mitoxanthrone Hydrochloride, reference compound] | 49 | > 10 |  |
| O=c1cc(-c2ccccc2)oc2cccc(O)c12 [Primuletin] | 30 | > 10 |  |
| O=c1c(O)cccc2cc(O)c(O)c(O)c12 [Purpurogallin] | 30 | > 10 |  |
| Cc1ccc(C(=O)Nc2ccc(S(=O)(=O)O)c3cc(S(=O)(=O)O)cc(S(=O)(=O)O)c23)cc1NC(=O)c1cccc(NC(=O)Nc2cccc(C(=O)Nc3cc(C(=O)Nc4ccc(S(=O)(=O)O)c5cc(S(=O)(=O)O)cc(S(=O)(=O)O)c45)ccc3C)c2)c1 [Suramin, reference compound] | 70 | < 10 |  |
| O=C(OC[C@H]1O[C@@H](OC(=O)c2cc(O)c(O)c(OC(=O)c3cc(O)c(O)c(O)c3)c2)[C@H](OC(=O)c2cc(O)c(O)c(OC(=O)c3cc(O)c(O)c(O)c3)c2)[C@@H](OC(=O)c2cc(O)c(O)c(OC(=O)c3cc(O)c(O)c(O)c3)c2)[C@@H]1OC(=O)c1cc(O)c(O)c(OC(=O)c2cc(O)c(O)c(O)c2)c1)c1cc(O)c(O)c(OC(=O)c2cc(O)c(O)c(O)c2)c1 [Tannic Acid] | 93 | < 10 |  |
| O=C(O[C@@H]1Cc2c(O)cc(O)cc2O[C@@H]1c1cc(O)c(=O)c2c(O)c(O)cc([C@H]3Oc4cc(O)cc(O)c4C[C@H]3O)c2c1)c1cc(O)c(O)c(O)c1 [Theaflavin Monogallate] | 88 | < 10 |  |
| Carboplatin [reference compound] |  | > 10 | Primary Screen (10 μM), inhibition value [1, 3]: 45% |

Reference: patent publication US20220151983A1, “COMPOUNDS FOR INHIBITING FUCOSYLATION AND METHODS FOR USING THE SAME” (SCORE PHARMA, INC., priority 2019, published 2022)
